Columns and labels:
[1] = tested on: reconstructed human skin (EPI-200; Epiderm); assay: in vitro skin irritation, MTT viability assay; type: cell-based
Experimental: In vitro skin irritation studies were carried out using reconstructed human skin (EPI-200; Epiderm; Mattek Corporation, Ashland, MA). […] Briefly, the MTT assay was performed by transferring the tissues to 24-well plates containing MTT medium (1 mg/ml). After 3 hours, formazan salt formed by cellular mitochondria was extracted with 2 ml/tissue of isopropanol and the optical density will be measured using a plate reader at 570 nm. Relative cell viability will be calculated as % of the mean of the negative control. The cytotoxicity was estimated by the time to kill 50% of the cells (ET-50).

[2] = in-vitro skin penetration, vertical diffusion cell
Experimental: Skin penetration studies were carried out using porcine full-thickness skin (Procured from Department of Animal and Range Sciences, SDSU) and excised human skin (NDRI, Philadelphia, PA). The skin was sandwiched between the two compartments of a vertical diffusion cell and equilibrated for 3 hrs. The receptor compartment was filled with phosphate buffer (pH 7.4) and was maintained at 37° C. with stirring. […] Samples (200μ) were removed from the receptor compartment at predetermined intervals and replaced with an equal volume of fresh buffer. To study the effect of the formulation forming a skin depot, in a separate experiment the skin was treated for 6 hrs and the treatment was removed. The donor compartment was replaced with plain buffer (pH 7.4) and the study was continued for 48 hrs. At the end of the study the skin was taken out and stratum corneum (SC) was removed using tape stripping and the tape strips were soaked in 50% ethanol overnight to extract the drug. The remaining skin (epidermis and dermis) was homogenized using 1M sodium hydroxide solution. Scintillation cocktail was added to all the samples and the radioactive counts were measured in a scintillation counter (Beckman).

Row | Molecule | ET 50 Value [1] | amount of tetracycline in the human skin [2]
1 | Triton X-100 [Positive control] | 5.28 h | –
2 | CN(C)[C@@H]1C(O)=C(C(N)=O)C(=O)[C@@]2(O)C(O)=C3C(=O)c4c(O)cccc4[C@@](C)(O)[C@H]3C[C@@H]12 [tetracycline] | – | 20-60 μg/sq·cm
